Measured values: ChEMBL document CHEMBL5728747, “Benzimidazoles and indoles as taro inhibitors” (2021)
Where “and” joins values, the source holds several entries; their conditions need not be identical. Equal values may be shown once.

Assay: TarO Biochemical Enzymatic Assay: The TarO biochemical enzymatic assay is a liquid chromatography-mass spectroscopy (LC-MS) based end point assay that measures C55-P-P-GlcNAc (LIPID III) production. The TarO biochemical enzymatic assay was performed in a 384-well microtiter plate (Labcyte) with a reaction volume of 20 μl. The reaction mix contained 0.1 μgs/μl of TarO membrane preparation derived from MRSA COL (lysostaphin/lysozyme treated, centrifuged at 40K rpm, and re-suspended in 50 mM Tris pH 7.5, 10 mM MgCl2), 1500 μM UDP-GlcNAc, ×75 μM C55-P substrates in 83 mM Tris pH 8.0, 6.7 mM MgCl2, 6 mM CHAPS, and 8.3% DMSO buffer. The enzyme reactions were quenched by extraction in 40 μl of 1-pentanol containing 0.04 μM 15C C55-PP-GlcNAc, which was used as an internal standard. A 10 μl volume of the quenched reaction mixture (pH≈3) from each well was injected onto a reversed-phase column (C4, 5 μm, 2.1×50 mm, Thermo Scientific Biobacis-4) and eluted using a NH4Ac/H2O/MeOH gradient (solvent A: 10 mM NH4Ac in water, pH 5.6; solvent B: NH4Ac (1 M)-Isopropanol (1:90, v/v, pH 5.6). The HPLC conditions were as follows: 15% solvent B for 15 seconds followed by a gradient to 90% solvent B in 90 seconds; then solvent B was kept at 95% for 10 seconds followed by a gradient to 8% solvent B in 0.1 minute. The column was then equilibrated at 15% B for 1 minute before the next injection. The flow rate was kept constant at 600 μl/minute. Mass spectrometric detection was carried out in the negative-ion mode using selected reaction monitoring (SRM). Typical mass spectrometric conditions were as follows: heated capillary temperature, 210° C.; spray voltage, 2500 V; desolvation gas (N2), 40 l/h; auxiliary gas (N2), 35 l/h. Selected ion current (SIC) chromatograms of C55-PP-GlcNAc and internal standard 15C C55-PP-GlcNAc were plotted and integrated using LCQuan incorporated in Xcalibur software (ThermoFinnigan). The linearity of C55-PP-GlcNAc concentration versus mass spectrometric signal (AC55-PP-GlcNAc/A15C-C55-PP-GlcNAc) was determined with purified C55-PP-GlcNAc. The IC50 values were calculated using the nonlinear regression analysis (sigmoidal dose response fit allowing for a variable slope) of percent inhibition data with minimum and maximum values set to 0 and 100 percent.

| Compound | IC50 |
| --- | --- |
| CCN(C(=O)CCn1c(C2CCCN(C(=O)OC(C)(C)C)C2)nc2cc(F)ccc21)C1CCCCC1 (centres undefined) | 60 nM and 120 nM |
| CCN(C(=O)CCn1c(C2CCCN(C(=O)OC(C)C)C2)nc2ccccc21)C1CCCCC1 (centres undefined) | 260 nM |
| CCN(C(=O)CCn1c2c(F)cccc2nc1[C@H]1CC[C@H](CC)CC1)C1CCCCC1 | 40 nM |
| CCc1nsc(N2CCCC(c3nc4ccccc4n3CCC(=O)N(CC)C3CCCCC3)C2)n1 (centres undefined) | 80 nM |
| CC(C)(C)OC(=O)NCC1CCC(c2nc3ccccc3n2CCC(=O)NC2C[C@H]3CC[C@]2(C)C3(C)C)CC1 (some centres undefined) | 1350 nM |
| CCN(C(=O)CCn1c(-c2ccc(-n3ccnn3)cc2)nc2ccccc21)C1CCCCC1 | 3770 nM |
| CCN(C(=O)CCn1c(N2CCC(C(F)F)CC2)nc2ccccc21)C1CCCCC1 | 170 nM |
| CCN(C(=O)CCn1c2ccc(CO)cc2nc1[C@H]1CC[C@H](CC)CC1)C1CCCCC1 | 770 nM |
| CCOC(=O)N1CCCC(c2nc3ccc(F)cc3n2CCC(=O)N(CC)C2CCCCC2)C1 (centres undefined) | 1090 nM |
| CCN(C(=O)CCn1c2ccc(C3CC3)cc2nc1[C@H]1CC[C@H](CC)CC1)C1CCCCC1 | 130 nM |
| CCN(C(=O)CCn1c2ccc(C#N)cc2nc1[C@H]1CC[C@H](CC)CC1)C1CCCCC1 | 420 nM |
| CCC1CCN(Cc2nc3cc(C)ccc3n2CCC(=O)N(CC)C2CCCCC2)CC1 | 1050 nM |
| CCN(C(=O)CCn1c2cc(-c3cnn(C)c3)ccc2nc1[C@H]1CC[C@H](CC)CC1)C1CCCCC1 | 50 nM |
| CCN(C(=O)CCn1c(N2CCC[C@H](NC(=O)OC(C)(C)C)C2)nc2ccccc21)C1CCCCC1 | 7990 nM |
| CCN(C(=O)CCn1c2cccc(C[C@H]3CCOC3)c2nc1[C@H]1CC[C@H](CC)CC1)C1CCCCC1 | 520 nM |
| CCN(C(=O)CCn1c(C2CCC(C)N(c3cccc(OC)n3)C2)nc2ccccc21)C1CCCCC1 (centres undefined) | 20 nM |
| CCN(C(=O)CCn1c2cc(F)ccc2nc1[C@H]1CC[C@H](CC)CC1)C1CCCCC1 | 20 nM |
| CCN(C(=O)CCn1c2cc(CO)ccc2nc1[C@H]1CC[C@H](CC)CC1)C1CCCCC1 | 120 nM |
| CCN(C(=O)CCn1c2cccc(C(F)F)c2nc1[C@H]1CC[C@H](C)CC1)C1CCCCC1 | 360 nM |
| CCN(C(=O)CCn1c(C2CCCCC2)nc2ccccc21)C1CCCCC1 | 70 nM |

| Compound | IC50 |
| --- | --- |
| CCN(C(=O)CCn1c(N2CCC(F)(F)CC2)nc2ccccc21)C1CCCCC1 | 220 nM |
| CCN(C(=O)CCn1c2cnccc2nc1[C@H]1CC[C@H](CC)CC1)C1CCCCC1 | 840 nM |
| CCN(C(=O)CCn1c(C2CCCN(c3cccc(OC)n3)C2)nc2ccccc21)C1CCCCC1 (centres undefined) | 10 nM |
| CCCCOC(=O)N1CCCC(c2nc3ccccc3n2CCC(=O)N(CC)C2CCCCC2)C1 (centres undefined) | 70 nM |
| CCCOC(=O)N1CC(c2nc3ccccc3n2CCC(=O)N(CC)C2CCCCC2)CCC1C (centres undefined) | 110 nM |
| CCN(C(=O)CCn1c2cc(CN3CCN(CC(F)(F)F)CC3)ccc2nc1[C@H]1CC[C@H](CC)CC1)C1CCCCC1 | 1480 nM |
| CCN(C(=O)CCn1c(N2CCC(C(C)(C)C)CC2)nc2ccccc21)C1CCCCC1 | 10 nM |
| CC(C)(C)OC(=O)N1CCC(c2nc3ccccc3n2CCC(=O)NC2C[C@H]3CC[C@]2(C)C3(C)C)C1 (some centres undefined) | 3400 nM |
| CCN(C(=O)CCn1c2cc(C#N)ccc2nc1[C@H]1CC[C@H](CC)CC1)C1CCCCC1 | 790 nM |
| CCN(C(=O)CCn1c2cccc(N3CCOCC3)c2nc1[C@H]1CC[C@H](CC)CC1)C1CCCCC1 | 3440 nM |
| CCN(C(=O)CCn1c(C2CCCN(c3nccc(OC)n3)C2)nc2ccccc21)C1CCCCC1 (centres undefined) | 80 nM |
| CCN(C(=O)CCn1c2ccc(C(F)(F)F)cc2nc1[C@H]1CC[C@H](CC)CC1)C1CCCCC1 | 10 nM |
| CCN(C(=O)CCn1c2ccc(OC)cc2nc1[C@H]1CC[C@H](CC)CC1)C1CCCCC1 | 150 nM |
| CCOC(=O)N1CCCC(c2nc3cc(F)ccc3n2CCC(=O)N(CC)C2CCCCC2)C1 (centres undefined) | 110 nM and 290 nM |
| CCN(C(=O)CCn1c(-c2ccc(OCC(F)(F)F)cc2)nc2ccccc21)C1CCCCC1 | 40 nM |
| CCN(C(=O)CCn1c2cc(CN)ccc2nc1[C@H]1CC[C@H](CC)CC1)C1CCCCC1 | 7320 nM |
| CC1(C)[C@@H]2CC[C@@]1(C)[C@H](NC(=O)CCn1c3ccccc3nc1[C@H]1CC[C@@H](C(C)(C)C)CC1)C2 | 60 nM |
| CCN(C(=O)CCn1c(C2CCCN(c3ccccn3)C2)nc2ccccc21)C1CCCCC1 (centres undefined) | 90 nM |
| CCN(C(=O)CCn1c(-c2ccc(C(=O)OC)cc2)nc2ccccc21)C1CCCCC1 | 130 nM |
| CC1CCN(C(=O)CCn2c(C3CCCCC3)nc3ccccc32)CC1 | 2340 nM |

| Compound | IC50 |
| --- | --- |
| CCC1CCN(Cc2nc3ccccc3n2CCC(=O)N(CC)C2CCCCC2)CC1 | 210 nM |
| CCN(C(=O)CCn1c2ccncc2nc1[C@H]1CC[C@H](CC)CC1)C1CCCCC1 | 150 nM |
| CCN(C(=O)CCn1c2cccnc2nc1[C@H]1CC[C@H](CC)CC1)C1CCCCC1 | 660 nM |
| CCN(C(=O)CCn1c2ncccc2nc1[C@H]1CC[C@H](CC)CC1)C1CCCCC1 | 300 nM |
| CCN(C(=O)CCn1c2cc(C[C@H]3CCOC3)ccc2nc1[C@H]1CC[C@H](CC)CC1)C1CCCCC1 | 380 nM |
| CCN(C(=O)CCn1c(C2CCN(C(=O)OC(C)(C)C)C2)nc2cc(F)ccc21)C1CCCCC1 (centres undefined) | 400 nM |
| CN(C(=O)CCn1c(C2CCCCC2)nc2ccccc21)C1CCCCC1 | 280 nM |
| CCN(C(=O)CCn1c2cc(Br)ccc2nc1[C@H]1CC[C@H](CC)CC1)C1CCCCC1 | 30 nM |
| CCCOC(=O)N1CCCC(c2nc3ccccc3n2CCC(=O)N(CC)C2CCCCC2)C1 (centres undefined) | 150 nM |
| CCN(C(=O)CCn1c2ccc(Br)cc2nc1[C@H]1CC[C@H](CC)CC1)C1CCCCC1 | 10 nM |
| CC1(C)[C@@H]2CC[C@@]1(C)[C@H](NC(=O)CCn1c(C3CCCCC3)nc3ccccc31)C2 | 200 nM |
| CCN(C(=O)CCn1c(N2CCC(C)CC2)nc2ccccc21)C1CCCCC1 | 210 nM |
| CCN(C(=O)CCn1c(C2CCC(C)N(c3nccc(OC)n3)C2)nc2ccccc21)C1CCCCC1 (centres undefined) | 140 nM |
| CCN(C(=O)CCn1c2cccc(F)c2nc1[C@H]1CC[C@H](CC)CC1)C1CCCCC1 | 30 nM |
| CCN(C(=O)CCn1c(CN2CCC(C(C)(C)C)CC2)nc2ccccc21)C1CCCCC1 | 100 nM |
| CCN(C(=O)CCn1c2ccc(F)cc2nc1[C@H]1CC[C@H](CC)CC1)C1CCCCC1 | 40 nM |
| CCOc1ccc(-c2nc3ccccc3n2CCC(=O)N(CC)C2CCCCC2)cn1 | 240 nM |
| CCN(C(=O)CCn1c(C2CCCN(c3nccc(C)n3)C2)nc2ccccc21)C1CCCCC1 (centres undefined) | 230 nM |
| CCN(C(=O)CCn1c2cc(CN3CC(F)(F)C3)ccc2nc1[C@H]1CC[C@H](CC)CC1)C1CCCCC1 | 1770 nM |
